{"source": "patent US8741653B2", "about": "“Single recombination system and methods of use” (priority 2008, dated 2014)", "key": {"MVA": {"system": "MVA", "type": "cell-based, Modified Vaccinia Ankara virus"}}, "data": [{"compound": "CN(C)[C@@H]1C(O)=C(C(N)=O)C(=O)[C@@]2(O)C(O)=C3C(=O)c4c(O)cccc4[C@@](C)(O)[C@H]3C[C@@H]12", "note": "[tetracycline]", "values": [{"measurement": "reduction of MVA replication", "setting": "MVA", "result": 1, "unit": "log"}, {"measurement": "cytotoxic effect of tetracycline", "setting": "CEF cells", "result": "pronounced cytotoxic effect"}]}]}
